row,melting point,Structure (SMILES)
1,185 to 186 °C,CSC(=NC#N)Nc1ccccc1
2,208 °C,CC1(C)SC2C(NC(=O)C(N)c3ccccc3)C(=O)N2C1C(=O)O (stereo unspecified)
3,133 °C,CN1C(=O)c2ccccc2C1O (stereo unspecified)
4,118 to 120 °C,COc1ccc(C(=O)c2cccc(OC)c2OC)cc1OC
5,149 °C,N#C/C(=N/Nc1cc(Cl)c(Cl)cc1Cl)c1nc2ccccc2c(=O)[nH]1
6,56 to 60 °C,Cc1nc(-c2cccc(Br)c2)cs1
7,175 °C,CC(=O)Nc1ccc(OC(=O)c2ccccc2OC(C)=O)cc1
8,127 to 128 °C,O=Cc1c(-c2ccccc2)nc2n1CCS2
9,49 to 51 °C,OCc1ccc(-c2ccccn2)cc1
10,123 °C,Clc1nnnn1-c1ccccc1
11,274 °C,N=C1NC(=O)C(=NNc2ccccc2[N+](=O)[O-])S1
12,222 to 223 °C,O=C1c2ccccc2-c2ccc([N+](=O)[O-])cc21
13,204 °C,CC1(C)CC(=O)C2=C(C1)Nc1ccc3ccccc3c1C2c1ccc(F)cc1 (stereo unspecified)
14,48 to 48.5 °C,Cc1nccn1-c1ccccc1CN
15,243 to 245 °C,Cn1ccc2c(C(=O)O)cccc21
16,290 °C,Nc1ccc(C(=O)O)cc1[N+](=O)[O-]
17,146 °C,COc1cc(NS(=O)(=O)c2ccc(N)cc2)nc(C)n1
18,47 to 51 °C,CCOC(=O)Nc1ccccc1
19,127 °C,CC(=O)Nc1cccc(C(C)=O)c1
20,156 °C,O=C(c1ccccc1)C(Br)C(Br)c1ccccc1 (stereo unspecified)
21,138 to 140 °C,O=C(NCc1ccc(S(=O)(=O)Cl)s1)c1ccc(Cl)cc1
22,165 °C,Brc1ccc2cc(Br)ccc2c1
23,254 °C,N#C/C(=N/Nc1cccc2ccccc12)c1nc2ccccc2s1
24,255 °C,O=C(C1=NN(c2ccccc2)C2C(=O)N(c3ccc(Br)cc3)C(=O)C12)c1ccc(Cl)cc1 (stereo unspecified)
25,122 to 129 °C,Cc1ccc(S(=O)(=O)OCC2CCC(=O)N2)cc1 (stereo unspecified)
26,123 °C,CC(C)OC(=O)C1(S(=O)(=O)c2ccc([N+](=O)[O-])cc2)CC1
27,172 to 173 °C,Cc1cc(C)c(CC(=O)c2cc3ccccc3o2)c(C)c1

row,melting point,Structure (SMILES)
1,164 °C,O=C(C1=NOC2C(=O)N(c3cccc([N+](=O)[O-])c3)C(=O)C12)c1cccs1 (stereo unspecified)
2,230 °C,COc1cc(C=NNC(=O)CCn2c(C)nc3ccccc32)ccc1O
3,92 °C,O=[N+]([O-])c1cc(Br)ccc1O
4,35 to 38 °C,Brc1coc2ccccc12
5,36.5 °C,O=S(=O)(Cl)c1ccc(F)cc1
6,125 °C,Cc1cccc(NC(=O)c2ccccc2)c1
7,-60 °C,Cc1ccccc1N(C)C
8,97 °C,O=C1Cc2ccc3ccccc3c21
9,360 °C,O=C1C(=C2C=Cc3ccccc3N2)C(=O)c2c1cccc2[N+](=O)[O-]
10,176 °C,COc1nccnc1NS(=O)(=O)c1ccc(N)cc1
11,> 250 °C,CSC(=Nc1nnc(-c2ccc([N+](=O)[O-])cc2)s1)SC
12,177 to 178 °C,O=C(O)c1ccc(-c2cccs2)s1
13,168 °C,O=C(NNc1ccccc1)c1ccccc1
14,102 °C,c1ccc(OCc2nnc3n2NC(c2ccco2)S3)cc1 (stereo unspecified)
15,56 °C,Cc1ccc([Si](C)(C)c2ccccc2CO)cc1
16,176 to 178 °C,O=C(NC1(Cc2ccccc2)COCOC1=O)c1ccccc1 (racemic)
17,187 °C,O=C1CCCC1C1(O)C(=O)Nc2ccccc21 (stereo unspecified)
18,55 °C,N#Cc1ccccc1I
19,209 to 212 °C,O=C(O)C=Cc1ccccc1Cl
20,46 to 47 °C,Brc1cccc2cc[nH]c12
21,68 °C,OC1(c2ccccc2)Cc2ccccc21 (stereo unspecified)
22,150 °C,O=C(O)C(=O)Nc1ccccc1
23,181 °C,N#Cc1ccc(C(c2ccc(C#N)cc2)n2cncn2)cc1
24,187 °C,c1ccc(Cc2nc3ccccc3[nH]2)cc1
25,106 °C,Ic1cccc2cccc(I)c12
26,83 °C,c1ccc(-c2nnc3n2NC(c2ccccc2)S3)cc1 (stereo unspecified)

# The remaining lines, values behind:
row,Structure (SMILES),melting point
1,CCOC(=O)CC(CC(=O)OCC)(c1cc(C)c(O)c(C)c1)c1cc(C)c(O)c(C)c1,178 °C
2,Nc1ccc(C(=O)O)nc1,218 °C
3,CC(=O)c1ccc(S(=O)(=O)NC(=O)NC2CCCCC2)cc1,188 °C
4,C=CCl,-154 °C
5,COC(=O)c1c2c(c(C)c3c1C(C)C3=O)C(=O)C2 (stereo unspecified),150 °C
6,NC(=S)Nc1cccc(Cl)c1,137 to 138 °C
7,CC(=O)Nc1ccc(C#N)cc1C(F)(F)F,169 to 171 °C
8,Cc1csc(N)c1C(N)=O,174 °C
9,O=C(OCC1CCC2OC2C1)C1CCC2OC2C1 (stereo unspecified),-37 °C
10,CC(=O)C1CCC2C3CC(C)C4=CC(=O)CCC4(C)C3C(O)CC12C (stereo unspecified),156 °C
11,N#CCCNCCC#N,-6 °C
12,CC1OC(OC2C=C3CCC4C(CCC5(C)C(c6ccc(=O)oc6)CCC45O)C3(C)CC2)C(O)C(O)C1O (stereo unspecified),221 °C
13,CSc1nc(N)c(C(=O)c2ccc(Cl)cc2)s1,148 to 150 °C
14,COc1cc2c(cc1O)CCNC2,222 °C
15,CCC(=O)c1ccc(O)c(C)c1O,128 to 130 °C
16,Oc1ccc2c(c1)C13CCCCC1C(C2)N(CC1CC1)CC3 (stereo unspecified),188 °C
17,N#CCN1CCCCC1,25 °C
18,Cc1ccc2ccc(C)cc2c1,97 °C
19,OCc1cccnc1Cl,54 to 55 °C
20,CCC1CCCCN1C(=O)COC(=O)c1ccccc1 (stereo unspecified),54.5 °C
21,Cc1nc2cc(C)c(C)cc2o1,93.5 to 94 °C
22,CC(=NO)c1ccc2c(c1)CC(C)O2 (stereo unspecified),83 to 85 °C
23,ClCc1nc(-c2ccc(Cl)cc2)no1,60 to 61 °C
24,N#CSc1ccc([N+](=O)[O-])c(C(=O)O)c1,156 to 160 °C
25,O=C(O)C1(C(=O)O)C2CCCCCCC21 (stereo unspecified),217 °C
26,CCCCCC(=O)OCCCC,-64.3 °C

row,Structure (SMILES),melting point
1,c1cc(N2CCNCC2)ccn1,142 to 144 °C
2,Cc1cc(C)c2c(c1)CC1CCCCN1C2=O (stereo unspecified),102 °C
3,N#CC1=C(N)Oc2[nH]nc(C(F)(F)F)c2C1c1ccc(Cl)cc1Cl (stereo unspecified),199 °C
4,C1SSCSSS1,60.5 °C
5,COc1c(OC)c(OC(C)=O)c2c(OC)cccc2c1OC(C)=O,69.5 °C
6,OCCN1CCN(Cc2ccc(F)cc2)CC1,55 to 56 °C
7,NCCCNc1ncc(C(F)(F)F)cc1Cl,60 to 65 °C
8,COC(=O)C1=C(C)NC(=O)NC1c1ccc2c(c1)OCO2 (stereo unspecified),239 to 241 °C
9,COc1ccc(CC(=O)O)cc1,87 °C
10,O=CC=Cn1ccnc1,118 °C
11,CC12CCC3C(CCC4CC5(CCC43C)OCCO5)C1CCC2=O (stereo unspecified),153 °C
12,Cc1c(N)cccc1N,106 °C
13,CC(=O)Oc1cccc(O)c1,55 °C
14,C=Cc1cccc(C(N)=O)c1,133 °C
15,NC(=O)C1(C(=O)O)CC1,184 to 189 °C
16,CC(=O)OCC(=O)C1CCC2C3CCC4CC(O)CCC4(C)C3C(=O)CC12C (stereo unspecified),176 °C
17,N#Cc1c(N2CCCC2)cc(Cl)nc1N1CCCC1,132 to 140 °C
18,CCCCCCCC(=O)CC,2.5 °C
19,FC(F)(F)c1nn(CN2CCN(Cn3nc(C(F)(F)F)n(N=Cc4ccc5c(c4)OCO5)c3=S)CC2)c(=S)n1N=Cc1ccc2c(c1)OCO2,156 °C
20,OC1CCCCCCC1,25.1 °C
21,CC(=O)Nc1ccc(C)cc1Br,118 °C
22,COc1cc(Cl)c(Cl)c(Cl)c1OC,66 °C
23,CCOC(=O)c1cn[nH]c1,77 °C
24,CCCCCCCCCCc1ccc(C(C)=O)cc1,33 to 35 °C
25,CC(C)(C)OC(=O)c1cccc(N)c1,81 to 83 °C
26,CCOC(=O)C(F)(F)C(F)(F)F,75.5 °C

row,Structure (SMILES),melting point
1,CC(C)(c1cc(Br)c(O)c(Br)c1)c1cc(Br)c(O)c(Br)c1,181 °C
2,O=C(C=NO)Nc1cc(Cl)ccc1Cl,198 to 201 °C
3,CCOc1cc(OCC)cc(OCC)c1,43.5 °C
4,CC(=O)OC1CCC2(C)C3CCC4=C(CCC4(C)C(C)OC(C)=O)C3CCC2(C)C1 (stereo unspecified),117 to 119 °C
5,COc1cc(C)cc(OC)c1OC,36 °C
6,CCCC1(C)CC(=O)NC1=O (stereo unspecified),76 to 78 °C
7,COC1CCC(OC)O1 (stereo unspecified),-45 °C
8,COc1ccc(C(=O)CCC(=O)O)cc1,149 °C
9,CCSc1nnc(NC(=O)C(F)(F)C(F)(F)C(F)(F)C(F)(F)C(F)(F)C(F)(F)C(F)(F)C(F)(F)F)s1,131 °C
10,Nc1ccc(Br)cc1C(=O)c1ccccc1F,100 to 104 °C
11,O=CCCCCC=O,-8 °C
12,Cc1cc(NN)nc(C)n1,189 to 190 °C
13,N#CC(c1ccc(Cl)cc1)N1CCOCC1 (stereo unspecified),76 to 77 °C
14,CC12CC(O)C3C(CCC4CC(O)CCC43C)C1CCC2=O (stereo unspecified),235 °C
15,CCC(=O)c1cc(C)ccc1O,2 °C
16,Clc1cc(Br)ccc1I,35 to 37 °C
17,N#CC=Cc1ccco1,38 °C
18,CCCCF,-134 °C
19,COC(=O)c1ccc(OC)cc1O,49 to 53 °C
20,O=C(O)c1cc(F)c(F)c(F)c1F,88 to 89 °C
21,C=C1C(=O)C23C(OC(C)=O)CC4C(C)(C)CCC(OC(C)=O)C4(C)C2C(OC(C)=O)CC12OC(C)(C)OC23 (stereo unspecified),259 °C
22,O=Cc1ccc(N2CCOCC2)s1,126 to 128 °C
23,Nc1ccc(-n2cncn2)cc1,142 to 144 °C
24,NC(=O)c1ccc(Cl)nc1,215 °C
25,OCc1cn2ccsc2n1,154 to 155 °C
26,O=S(=O)(Cl)c1ccc(S(=O)(=O)N2CCCC2)cc1,133 to 134 °C

# Source: a melting point compilation (Tetko et al.)
